In PubChem BioAssay AID2060504 (Molecular Pharmacology Branch, DTP, NCI, 2025):
pIC50: −log10 of the molar value. Values belong to the compound of their own block, whether it stands above or below them.

System: 636577-100-R-J1-PDC complex spheroid viability
Assay: Anticancer human tumor 636577-100-R-J1-PDC patient-derived endometrial adenocarcinoma cell line growth inhibition [GQUAD]
Details: for pIC50: curve of first compound; for viability, T/C: stronger effect = lower value
Description: DNA G-quadruplex Stabilizer Agents in Combinations in Complex Spheroids
A high-throughput screen of multi-cell type tumor spheroids was designed to identify active combinations of DNA G-quadruplex stabilizer agents and targeted small molecules. Complex spheroids include a stromal component modeled by human endothelial cells (HUVEC) and fibroblasts modeled by human mesenchymal stem cells (MSCs). The concentration ranges selected for each drug and investigational agent were based upon clinically achievable concentrations if the clinical Cmax of the agent was known.
Compounds. The drugs and investigational agents: pidnarulex (CX-5461; NSC782164), APTO-253 (NSC789042), BRACO-19 (NSC847499), peposertib (NSC802822), ceralasertib (NSC780249), elimusertib (NSC800525), camonsertib (NSC841442), AZD-1390 (NSC803789), olaparib (NSC753686), talazoparib (NSC767125), ART-558 (NSC835418), sotorasib (NSC818433), MRTX-1133 (NSC836407), SN-38 (NSC673596), topotecan (NSC609699), etoposide (NSC141540), doxorubicin (NSC123127), gemcitabine (NSC613327), 5-fluorouracil (NSC19893), paclitaxel (NSC125973), vemurafenib (NSC761431), panobinostat (NSC761190), R-306465 (JNJ-16241199; NSC773264), adavosertib (NSC754352), TP-3654 (NSC805149), carboplatin (NSC241240), KSQ-4279 (NSC840948), and staurosporine (NSC755774) were obtained from the National Cancer Institute (NCI) Developmental Therapeutics Program Chemical Repository (34). The FDA-approved anticancer drug set is available from the NCI Developmental Therapeutics Program. […] The stock solutions were prepared in dimethyl sulfoxide (DMSO, Sigma-Aldrich, St. Louis, MO, cat. D2650) at 800-fold the tested concentration and stored at -70 degrees C prior to their use. All drugs and investigational agents were tested over a range starting from a high concentration at or near the clinical Cmax and decreasing in half-log increments. If the clinical Cmax for an agent had not been determined, the highest concentration tested was 10 microM.
2.3 Cell Culture. All cells were maintained in an incubator at 37 degrees C and 5% CO2 with 95% humidity. The PDC lines were cultured according to standard operating procedures established by the NCI PDMR. All PDCs were thawed and cultured in Matrigel-coated flasks prepared with a working solution of 1X Ham's F-12 nutrient mix, without supplementation (Invitrogen, cat. 11765054), 100 U/mL penicillin-streptomycin (Invitrogen, cat. 15140122), and 2.5% Matrigel (Corning Inc., cat. 354248) for the first three passages. The 857933-349-R-J2-PDC line was cultured in 6C/Colon 1B media, which includes advanced DMEM/F-12 (Thermo Fisher Scientific, cat. 12634028), 10 mM HEPES (Thermo Fisher Scientific, cat. 15630080), 1X GlutaMAX supplement (Thermo Fisher Scientific, cat. 35050061), 0.1 mg/mL primocin (InvivoGen, cat. ant-pm-2), 10% defined fetal bovine serum, heat inactivated (HyClone Laboratories Inc., cat. SH30070.03HI), 50% L-WRN conditioned media (ATCC, cat. CRL-3276), 1.25 mM N-Acetyl-L-cysteine (Sigma-Aldrich, cat. A9165), 10 mM nicotinamide (Sigma-Aldrich, cat. N0636), 1X B-27 supplement (Thermo Fisher Scientific, cat. 17504044), 1X N-2 supplement (Thermo Fisher Scientific, cat. 17502048), 10 microM Y-27632 dihydrochloride (Tocris Bioscience, cat. 1254), and 50 ng/mL human EGF recombinant protein (Thermo Fisher Scientific, cat. PHG0311). The 485176-168-R4-J1-PDC line was cultured in Panc media, which includes all 6C/Colon 1B media components plus 100 ng/mL human FGF-10 (Thermo Fisher Scientific, cat. 100-26), 500 nM SB-431542 (Selleckchem, cat. S1067), and gastrin (Tocris, cat. 3006).
[…]

[1] = second compound 0.0316 µM, first compound 0.0316 µM
[2] = second compound 0.0316 µM, first compound 0.1 µM
[3] = second compound 0.0316 µM, first compound 0.316 µM
[4] = second compound 0.0316 µM, first compound 1 µM
[5] = second compound 0.0316 µM, first compound 3.16 µM
[6] = second compound 0.0316 µM, first compound 10 µM
[7] = second compound 0.1 µM, first compound 0.0316 µM
[8] = second compound 0.1 µM, first compound 0.1 µM
[9] = second compound 0.1 µM, first compound 0.316 µM
[10] = second compound 0.1 µM, first compound 1 µM
[11] = second compound 0.1 µM, first compound 3.16 µM
[12] = second compound 0.1 µM, first compound 10 µM
[13] = second compound 0.316 µM, first compound 0.0316 µM
[14] = second compound 0.316 µM, first compound 0.1 µM
[15] = second compound 0.316 µM, first compound 0.316 µM
[16] = second compound 0.316 µM, first compound 1 µM
[17] = second compound 0.316 µM, first compound 3.16 µM
[18] = second compound 0.316 µM, first compound 10 µM
[19] = second compound 1 µM, first compound 0.0316 µM
[20] = second compound 1 µM, first compound 0.1 µM
[21] = second compound 1 µM, first compound 0.316 µM
[22] = second compound 1 µM, first compound 1 µM
[23] = second compound 1 µM, first compound 3.16 µM
[24] = second compound 1 µM, first compound 10 µM
[25] = second compound 3.16 µM, first compound 0.0316 µM
[26] = second compound 3.16 µM, first compound 0.1 µM
[27] = second compound 3.16 µM, first compound 0.316 µM
[28] = second compound 3.16 µM, first compound 1 µM
[29] = second compound 3.16 µM, first compound 3.16 µM
[30] = second compound 3.16 µM, first compound 10 µM
[31] = second compound 10 µM, first compound 0.0316 µM
[32] = second compound 10 µM, first compound 0.1 µM
[33] = second compound 10 µM, first compound 0.316 µM
[34] = second compound 10 µM, first compound 1 µM
[35] = second compound 10 µM, first compound 3.16 µM
[36] = second compound 10 µM, first compound 10 µM
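Also: viability read after seven days of drug exposure.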
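For viability, T/C in this document: luminescence signal used as a proxy for viable cells; 100% = DMSO vehicle control wells.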

pIC50 (second compound 0.0316 µM): > 7.50
pIC50 (second compound 0.1 µM): > 7.50
pIC50 (second compound 0.316 µM): > 7.50
pIC50 (second compound 1 µM): > 7.50
pIC50 (second compound 3.16 µM): > 7.50
pIC50 (second compound 10 µM): > 7.50
Structure (SMILES): CC(=O)O[C@H]1C(=O)[C@@]2(C)[C@H]([C@H](OC(=O)c3ccccc3)[C@]3(O)C[C@H](OC(=O)[C@H](O)[C@@H](NC(=O)c4ccccc4)c4ccccc4)C(C)=C1C3(C)C)[C@]1(OC(C)=O)CO[C@@H]1C[C@@H]2O + Cc1cnc(CNC(=O)c2c(=O)c3ccc(N4CCCN(C)CC4)nc3n3c2sc2ccccc23)cn1
viability, T/C [1]: 22.4%
viability, T/C [2]: 13.4%
viability, T/C [3]: 13%
viability, T/C [4]: 10.6%
viability, T/C [5]: 9.54%
viability, T/C [6]: 9.18%
viability, T/C [7]: 23.1%
viability, T/C [8]: 16.2%
viability, T/C [9]: 14.3%
viability, T/C [10]: 10.2%
viability, T/C [11]: 12.1%
viability, T/C [12]: 10.1%
viability, T/C [13]: 23.6%
viability, T/C [14]: 18%
viability, T/C [15]: 13.9%
viability, T/C [16]: 12.5%
viability, T/C [17]: 11.2%
viability, T/C [18]: 10.7%
viability, T/C [19]: 21.2%
viability, T/C [20]: 16.5%
viability, T/C [21]: 15%
viability, T/C [22]: 14.2%
viability, T/C [23]: 13.2%
viability, T/C [24]: 10.7%
viability, T/C [25]: 19.6%
viability, T/C [26]: 18.2%
viability, T/C [27]: 17.2%
viability, T/C [28]: 14.3%
viability, T/C [29]: 15.7%
viability, T/C [30]: 14.3%
viability, T/C [31]: 18.1%
viability, T/C [32]: 18.5%
viability, T/C [33]: 17.8%
viability, T/C [34]: 15.3%
viability, T/C [35]: 15.2%
viability, T/C [36]: 15.3%

pIC50 (second compound 0.0316 µM): > 7.50
pIC50 (second compound 0.1 µM): > 7.50
pIC50 (second compound 0.316 µM): > 7.50
pIC50 (second compound 1 µM): > 7.50
pIC50 (second compound 3.16 µM): > 7.50
pIC50 (second compound 10 µM): > 7.50
Structure (SMILES): COc1cccc2c1C(=O)c1c(O)c3c(c(O)c1C2=O)CC(O)(C(=O)CO)CC3OC1CC(N)C(O)C(C)O1 (stereo unspecified) + Cc1cnc(CNC(=O)c2c(=O)c3ccc(N4CCCN(C)CC4)nc3n3c2sc2ccccc23)cn1
viability, T/C [1]: 22.1%
viability, T/C [2]: 16.6%
viability, T/C [3]: 15.6%
viability, T/C [4]: 8.2%
viability, T/C [5]: 0.23%
viability, T/C [6]: 0.38%
viability, T/C [7]: 19.2%
viability, T/C [8]: 15.4%
viability, T/C [9]: 13.4%
viability, T/C [10]: 7.3%
viability, T/C [11]: 0.09%
viability, T/C [12]: 0.33%
viability, T/C [13]: 19%
viability, T/C [14]: 16.6%
viability, T/C [15]: 13.1%
viability, T/C [16]: 7.79%
viability, T/C [17]: 0.05%
viability, T/C [18]: 0.28%
viability, T/C [19]: 18.3%
viability, T/C [20]: 15.7%
viability, T/C [21]: 12.5%
viability, T/C [22]: 6.92%
viability, T/C [23]: 0.05%
viability, T/C [24]: 0.3%
viability, T/C [25]: 13.3%
viability, T/C [26]: 17.1%
viability, T/C [27]: 14.2%
viability, T/C [28]: 0.81%
viability, T/C [29]: 0.07%
viability, T/C [30]: 0.15%
viability, T/C [31]: 17.1%
viability, T/C [32]: 15.1%
viability, T/C [33]: 15.2%
viability, T/C [34]: 0.07%
viability, T/C [35]: 0.11%
viability, T/C [36]: 0.15%

pIC50 (second compound 0.0316 µM): > 7.50
pIC50 (second compound 0.1 µM): > 7.50
pIC50 (second compound 0.316 µM): > 7.50
pIC50 (second compound 1 µM): > 7.50
pIC50 (second compound 3.16 µM): > 7.50
pIC50 (second compound 10 µM): > 7.50
Structure (SMILES): COc1ncnc(C2CC2)c1-c1ncc2cnn(Cc3ccc(-c4nc(C(F)(F)F)cn4C(C)C)cc3)c2n1 + Cc1cnc(CNC(=O)c2c(=O)c3ccc(N4CCCN(C)CC4)nc3n3c2sc2ccccc23)cn1
viability, T/C [1]: 37.8%
viability, T/C [2]: 36%
viability, T/C [3]: 42.7%
viability, T/C [4]: 32.1%
viability, T/C [5]: 37.7%
viability, T/C [6]: 31.4%
viability, T/C [7]: 29.7%
viability, T/C [8]: 26.2%
viability, T/C [9]: 29.4%
viability, T/C [10]: 25.2%
viability, T/C [11]: 28%
viability, T/C [12]: 27.4%
viability, T/C [13]: 24.2%
viability, T/C [14]: 24.7%
viability, T/C [15]: 25.8%
viability, T/C [16]: 21.6%
viability, T/C [17]: 25.2%
viability, T/C [18]: 24.5%
viability, T/C [19]: 19.5%
viability, T/C [20]: 18.5%
viability, T/C [21]: 22%
viability, T/C [22]: 20.4%
viability, T/C [23]: 25.4%
viability, T/C [24]: 22.6%
viability, T/C [25]: 16.3%
viability, T/C [26]: 21.4%
viability, T/C [27]: 22.7%
viability, T/C [28]: 17.4%
viability, T/C [29]: 25.9%
viability, T/C [30]: 19.2%
viability, T/C [31]: 20.8%
viability, T/C [32]: 20%
viability, T/C [33]: 23.5%
viability, T/C [34]: 18.3%
viability, T/C [35]: 23.7%
viability, T/C [36]: 22%
